{
  "source": "ChEMBL document CHEMBL5291721",
  "about": "“A preclinical secondary pharmacology resource illuminates target-adverse drug reaction associations of marketed drugs” (Nat Commun, 2023); also: assay procedure not described here",
  "key": {"[1]": {"target": "T1, Type-2 angiotensin II receptor (Homo sapiens, UniProt P50052)", "T1 sequence (P50052 whole entry)": "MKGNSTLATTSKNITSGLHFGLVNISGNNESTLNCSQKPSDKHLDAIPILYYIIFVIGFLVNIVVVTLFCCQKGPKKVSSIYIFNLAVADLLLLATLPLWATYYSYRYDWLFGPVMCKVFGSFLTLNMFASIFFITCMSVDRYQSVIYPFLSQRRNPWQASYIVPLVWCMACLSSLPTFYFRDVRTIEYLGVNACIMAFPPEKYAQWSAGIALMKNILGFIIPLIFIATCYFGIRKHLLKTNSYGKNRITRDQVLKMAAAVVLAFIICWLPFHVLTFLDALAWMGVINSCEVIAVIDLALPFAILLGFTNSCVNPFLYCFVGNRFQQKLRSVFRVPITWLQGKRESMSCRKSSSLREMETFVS", "format": "functional"}, "[2]": {"target": "T2, Peroxisome proliferator-activated receptor gamma (Homo sapiens, UniProt P37231)", "T2 sequence (P37231 whole entry)": "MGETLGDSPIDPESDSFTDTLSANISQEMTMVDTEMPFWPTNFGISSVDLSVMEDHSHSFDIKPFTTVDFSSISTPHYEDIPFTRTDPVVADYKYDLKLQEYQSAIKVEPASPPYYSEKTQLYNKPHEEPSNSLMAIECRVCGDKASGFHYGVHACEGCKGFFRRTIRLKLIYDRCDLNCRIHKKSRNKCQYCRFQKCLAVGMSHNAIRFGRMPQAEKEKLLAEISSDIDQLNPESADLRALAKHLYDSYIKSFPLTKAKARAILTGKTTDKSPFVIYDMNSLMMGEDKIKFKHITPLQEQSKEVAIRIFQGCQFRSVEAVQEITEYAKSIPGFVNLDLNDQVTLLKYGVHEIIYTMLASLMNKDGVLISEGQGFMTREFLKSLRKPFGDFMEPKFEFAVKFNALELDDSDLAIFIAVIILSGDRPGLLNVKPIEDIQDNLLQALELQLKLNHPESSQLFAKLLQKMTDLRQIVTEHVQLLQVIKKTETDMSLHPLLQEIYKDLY", "format": "functional"}, "[3]": {"target": "T2, Peroxisome proliferator-activated receptor gamma", "format": "functional", "remark": "listed apart in the source"}, "[4]": {"target": "Histamine H1 receptor (Homo sapiens, UniProt P35367)", "sequence (P35367 whole entry)": "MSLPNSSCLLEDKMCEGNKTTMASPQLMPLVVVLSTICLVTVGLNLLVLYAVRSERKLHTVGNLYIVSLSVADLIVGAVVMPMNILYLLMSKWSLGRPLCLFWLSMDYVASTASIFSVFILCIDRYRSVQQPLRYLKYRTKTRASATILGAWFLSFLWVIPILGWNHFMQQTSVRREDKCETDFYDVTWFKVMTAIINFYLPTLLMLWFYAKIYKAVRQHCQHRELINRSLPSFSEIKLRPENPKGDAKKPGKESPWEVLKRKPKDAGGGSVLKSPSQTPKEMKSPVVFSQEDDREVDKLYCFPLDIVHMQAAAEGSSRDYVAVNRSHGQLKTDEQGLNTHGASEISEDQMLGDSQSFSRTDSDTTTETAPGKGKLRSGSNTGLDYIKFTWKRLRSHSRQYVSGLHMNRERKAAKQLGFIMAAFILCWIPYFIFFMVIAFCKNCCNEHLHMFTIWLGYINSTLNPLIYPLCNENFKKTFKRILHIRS", "format": "functional, cell-based"}, "[5]": {"target": "Gamma-aminobutyric acid receptor subunit alpha-1/alpha-2/beta-2/gamma-2 (Homo sapiens, UniProt P14867+P18507+P47869+P47870)", "sequence (P14867 whole entry)": "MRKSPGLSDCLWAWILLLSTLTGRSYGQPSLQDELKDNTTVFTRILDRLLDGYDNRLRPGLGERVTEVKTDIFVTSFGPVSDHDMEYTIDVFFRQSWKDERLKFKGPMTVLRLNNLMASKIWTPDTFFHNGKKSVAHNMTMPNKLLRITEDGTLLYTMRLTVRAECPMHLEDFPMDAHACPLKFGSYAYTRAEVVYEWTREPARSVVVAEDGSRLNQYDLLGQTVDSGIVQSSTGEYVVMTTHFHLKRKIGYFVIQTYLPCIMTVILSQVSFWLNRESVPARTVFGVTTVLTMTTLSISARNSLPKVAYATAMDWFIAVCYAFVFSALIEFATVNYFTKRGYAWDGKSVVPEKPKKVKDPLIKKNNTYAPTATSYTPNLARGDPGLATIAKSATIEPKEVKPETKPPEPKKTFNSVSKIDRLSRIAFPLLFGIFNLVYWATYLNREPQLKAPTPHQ", "sequence (P47870 whole entry)": "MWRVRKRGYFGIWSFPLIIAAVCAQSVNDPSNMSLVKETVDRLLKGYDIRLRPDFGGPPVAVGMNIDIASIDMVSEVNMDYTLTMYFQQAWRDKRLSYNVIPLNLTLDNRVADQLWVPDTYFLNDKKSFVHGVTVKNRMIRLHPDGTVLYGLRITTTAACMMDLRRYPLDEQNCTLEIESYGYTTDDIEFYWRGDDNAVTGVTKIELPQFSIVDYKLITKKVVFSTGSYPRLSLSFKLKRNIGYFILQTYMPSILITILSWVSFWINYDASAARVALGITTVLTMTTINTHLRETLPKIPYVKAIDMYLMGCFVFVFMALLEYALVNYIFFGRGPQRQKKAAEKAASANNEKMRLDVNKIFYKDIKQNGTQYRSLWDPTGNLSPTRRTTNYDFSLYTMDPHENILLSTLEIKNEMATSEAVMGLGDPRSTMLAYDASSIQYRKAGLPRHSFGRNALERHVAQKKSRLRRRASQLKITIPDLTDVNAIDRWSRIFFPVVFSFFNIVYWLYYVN", "sequence (P18507 whole entry)": "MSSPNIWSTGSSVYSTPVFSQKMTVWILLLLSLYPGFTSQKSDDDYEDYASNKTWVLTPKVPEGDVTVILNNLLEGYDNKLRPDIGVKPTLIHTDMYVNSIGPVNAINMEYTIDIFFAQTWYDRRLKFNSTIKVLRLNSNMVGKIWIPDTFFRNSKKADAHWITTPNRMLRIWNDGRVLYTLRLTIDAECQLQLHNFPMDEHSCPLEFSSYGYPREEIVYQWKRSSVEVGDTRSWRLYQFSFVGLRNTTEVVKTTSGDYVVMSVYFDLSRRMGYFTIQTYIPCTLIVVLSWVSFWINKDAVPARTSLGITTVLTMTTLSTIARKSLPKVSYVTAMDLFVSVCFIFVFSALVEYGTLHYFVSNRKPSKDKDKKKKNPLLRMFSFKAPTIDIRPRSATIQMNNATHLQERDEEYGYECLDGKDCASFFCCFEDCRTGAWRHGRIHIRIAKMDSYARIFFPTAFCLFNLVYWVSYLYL", "sequence (P47869 whole entry)": "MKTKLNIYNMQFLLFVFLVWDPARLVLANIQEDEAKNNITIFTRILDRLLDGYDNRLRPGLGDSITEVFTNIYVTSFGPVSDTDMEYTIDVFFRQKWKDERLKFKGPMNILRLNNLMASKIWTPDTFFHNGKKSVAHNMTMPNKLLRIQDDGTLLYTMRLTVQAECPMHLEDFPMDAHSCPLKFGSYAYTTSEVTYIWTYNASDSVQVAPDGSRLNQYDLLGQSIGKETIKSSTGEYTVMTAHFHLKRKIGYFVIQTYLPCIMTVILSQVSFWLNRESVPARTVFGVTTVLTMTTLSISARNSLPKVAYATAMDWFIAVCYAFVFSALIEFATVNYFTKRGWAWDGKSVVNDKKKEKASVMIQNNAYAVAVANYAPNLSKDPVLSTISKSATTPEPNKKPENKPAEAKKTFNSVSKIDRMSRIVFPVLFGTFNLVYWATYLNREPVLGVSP", "format": "functional, cell-based"}, "[6]": {"target": "Gamma-aminobutyric acid type B receptor subunit 1 (Homo sapiens, UniProt Q9UBS5)", "sequence (Q9UBS5 whole entry)": "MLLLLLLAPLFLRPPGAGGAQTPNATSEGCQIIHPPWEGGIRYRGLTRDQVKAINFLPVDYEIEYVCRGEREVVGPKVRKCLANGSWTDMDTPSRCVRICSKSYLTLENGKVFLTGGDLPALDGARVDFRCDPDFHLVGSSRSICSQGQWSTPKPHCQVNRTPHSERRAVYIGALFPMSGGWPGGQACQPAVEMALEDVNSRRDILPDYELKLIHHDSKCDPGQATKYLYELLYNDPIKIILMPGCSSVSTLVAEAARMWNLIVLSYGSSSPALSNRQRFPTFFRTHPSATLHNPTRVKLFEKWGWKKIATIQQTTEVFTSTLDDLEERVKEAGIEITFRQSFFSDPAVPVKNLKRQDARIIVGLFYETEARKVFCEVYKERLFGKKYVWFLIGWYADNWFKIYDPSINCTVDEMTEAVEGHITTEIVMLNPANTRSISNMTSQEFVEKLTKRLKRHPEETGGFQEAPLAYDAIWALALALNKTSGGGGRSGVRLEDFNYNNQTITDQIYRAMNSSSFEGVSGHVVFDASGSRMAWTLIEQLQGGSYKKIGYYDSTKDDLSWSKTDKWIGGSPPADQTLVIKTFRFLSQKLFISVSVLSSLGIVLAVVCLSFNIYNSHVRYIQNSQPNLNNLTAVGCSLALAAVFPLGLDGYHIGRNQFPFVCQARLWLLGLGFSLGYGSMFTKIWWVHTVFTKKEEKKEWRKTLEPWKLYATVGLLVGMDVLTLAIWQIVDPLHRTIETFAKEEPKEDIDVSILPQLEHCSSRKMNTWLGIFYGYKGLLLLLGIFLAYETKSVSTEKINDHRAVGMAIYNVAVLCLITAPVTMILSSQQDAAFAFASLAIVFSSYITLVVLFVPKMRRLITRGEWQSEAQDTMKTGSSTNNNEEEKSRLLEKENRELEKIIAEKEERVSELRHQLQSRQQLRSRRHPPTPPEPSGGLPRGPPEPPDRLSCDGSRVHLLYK"}, "[7]": {"target": "T3, Muscarinic acetylcholine receptor M1 (Homo sapiens, UniProt P11229)", "T3 sequence (P11229 whole entry)": "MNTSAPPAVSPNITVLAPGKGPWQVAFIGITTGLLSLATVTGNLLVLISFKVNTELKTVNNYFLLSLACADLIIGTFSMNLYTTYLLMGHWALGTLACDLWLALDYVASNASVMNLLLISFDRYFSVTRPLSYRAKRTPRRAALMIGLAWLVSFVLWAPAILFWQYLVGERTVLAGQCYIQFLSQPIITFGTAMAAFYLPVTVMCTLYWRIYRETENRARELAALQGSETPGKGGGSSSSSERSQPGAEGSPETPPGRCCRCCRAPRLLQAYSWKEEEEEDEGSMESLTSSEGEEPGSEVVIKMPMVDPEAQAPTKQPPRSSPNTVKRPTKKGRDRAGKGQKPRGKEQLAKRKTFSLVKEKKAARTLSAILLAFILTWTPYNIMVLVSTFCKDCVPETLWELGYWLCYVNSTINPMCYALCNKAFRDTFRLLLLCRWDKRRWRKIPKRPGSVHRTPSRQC"}, "[8]": {"target": "Cannabinoid receptor 1 (Homo sapiens, UniProt P21554)", "sequence (P21554 whole entry)": "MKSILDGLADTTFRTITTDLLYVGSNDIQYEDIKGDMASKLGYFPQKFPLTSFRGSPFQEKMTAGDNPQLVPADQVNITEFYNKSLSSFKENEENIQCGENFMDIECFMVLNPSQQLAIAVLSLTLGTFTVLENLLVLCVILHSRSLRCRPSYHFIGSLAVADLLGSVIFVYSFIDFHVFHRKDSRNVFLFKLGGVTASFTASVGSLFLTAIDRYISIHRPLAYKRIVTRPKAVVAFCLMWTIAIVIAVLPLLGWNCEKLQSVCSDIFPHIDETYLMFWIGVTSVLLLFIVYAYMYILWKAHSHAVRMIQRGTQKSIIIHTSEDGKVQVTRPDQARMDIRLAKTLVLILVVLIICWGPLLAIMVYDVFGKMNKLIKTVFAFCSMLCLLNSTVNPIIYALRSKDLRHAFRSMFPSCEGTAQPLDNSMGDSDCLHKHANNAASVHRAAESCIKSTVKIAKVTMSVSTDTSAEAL", "format": "functional"}, "[9]": {"target": "T4, Corticotropin-releasing factor receptor 2 (Homo sapiens, UniProt Q13324)", "T4 sequence (Q13324 whole entry)": "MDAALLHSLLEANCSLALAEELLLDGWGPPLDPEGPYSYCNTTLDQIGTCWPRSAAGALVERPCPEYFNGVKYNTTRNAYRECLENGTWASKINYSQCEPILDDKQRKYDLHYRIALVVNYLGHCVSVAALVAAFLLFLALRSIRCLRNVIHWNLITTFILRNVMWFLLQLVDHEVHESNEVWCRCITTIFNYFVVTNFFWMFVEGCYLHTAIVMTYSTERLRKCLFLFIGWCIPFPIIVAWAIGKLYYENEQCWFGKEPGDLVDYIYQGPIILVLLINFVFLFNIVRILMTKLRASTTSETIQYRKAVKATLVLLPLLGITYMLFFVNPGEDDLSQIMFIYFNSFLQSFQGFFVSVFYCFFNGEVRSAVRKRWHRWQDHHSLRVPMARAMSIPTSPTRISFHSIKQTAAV"}, "[10]": {"target": "T5, Corticotropin-releasing factor receptor 1 (Homo sapiens, UniProt P34998)", "T5 sequence (P34998 whole entry)": "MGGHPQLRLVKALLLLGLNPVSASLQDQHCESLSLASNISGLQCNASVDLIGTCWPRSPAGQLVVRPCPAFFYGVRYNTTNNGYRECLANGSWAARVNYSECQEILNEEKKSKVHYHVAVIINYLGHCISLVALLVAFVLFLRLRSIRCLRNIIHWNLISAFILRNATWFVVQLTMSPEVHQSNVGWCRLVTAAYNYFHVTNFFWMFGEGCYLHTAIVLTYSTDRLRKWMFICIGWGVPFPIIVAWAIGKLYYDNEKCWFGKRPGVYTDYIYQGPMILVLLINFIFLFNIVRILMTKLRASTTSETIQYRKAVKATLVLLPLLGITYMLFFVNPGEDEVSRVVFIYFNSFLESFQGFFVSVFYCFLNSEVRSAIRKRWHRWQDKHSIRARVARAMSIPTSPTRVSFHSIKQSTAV"}, "[11]": {"target": "Estrogen receptor beta (Homo sapiens, UniProt Q92731)", "sequence (Q92731 whole entry)": "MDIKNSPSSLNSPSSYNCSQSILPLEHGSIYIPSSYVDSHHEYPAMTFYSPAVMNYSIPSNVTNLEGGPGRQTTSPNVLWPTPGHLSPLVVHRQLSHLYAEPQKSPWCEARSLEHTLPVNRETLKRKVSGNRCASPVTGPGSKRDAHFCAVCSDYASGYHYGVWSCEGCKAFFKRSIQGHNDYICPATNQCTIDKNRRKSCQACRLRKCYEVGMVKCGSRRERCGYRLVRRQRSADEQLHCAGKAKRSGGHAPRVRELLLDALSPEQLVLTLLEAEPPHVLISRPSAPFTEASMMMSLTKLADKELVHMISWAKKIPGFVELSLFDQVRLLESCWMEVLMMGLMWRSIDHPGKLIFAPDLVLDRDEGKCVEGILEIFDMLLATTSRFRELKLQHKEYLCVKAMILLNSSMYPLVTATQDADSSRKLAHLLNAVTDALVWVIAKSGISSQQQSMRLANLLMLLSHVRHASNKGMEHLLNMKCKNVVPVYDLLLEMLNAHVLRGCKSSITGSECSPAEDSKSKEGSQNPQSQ"}},
  "data": [
    {"smiles": "CN(C)Cc1nnc2n1-c1ccc(Cl)cc1C(c1ccccc1)=NC2", "note": "[ADINAZOLAM]", "values": [
      {"measurement": "AC50", "setting": "[1]", "value": "> 100", "unit": "µM"}
    ]},
    {"smiles": "CN(C)C/C=C/C(=O)Nc1cc2c(Nc3ccc(F)c(Cl)c3)ncnc2cc1O[C@H]1CCOC1", "note": "[AFATINIB]", "values": [
      {"measurement": "AC50", "setting": "[2]", "value": "> 30", "unit": "µM"},
      {"measurement": "AC50", "setting": "[3]", "value": "> 30", "unit": "µM"},
      {"measurement": "AC50", "setting": "[4]", "value": "> 30", "unit": "µM"},
      {"measurement": "AC50", "setting": "[5]", "value": "> 30", "unit": "µM"}
    ]},
    {"smiles": "O=C(/C=C/c1cccc(S(=O)(=O)Nc2ccccc2)c1)NO", "note": "[BELINOSTAT]", "values": [
      {"measurement": "AC50", "setting": "[6]", "value": "> 10", "unit": "µM"},
      {"measurement": "AC50", "setting": "[7]", "value": "> 30", "unit": "µM"},
      {"measurement": "AC50", "setting": "[8]", "value": "> 10", "unit": "µM"}
    ]},
    {"smiles": "CC(C)(Oc1ccc(CCNC(=O)c2ccc(Cl)cc2)cc1)C(=O)O", "note": "[BEZAFIBRATE]", "values": [
      {"measurement": "AC50", "setting": "[2]", "value": "> 30", "unit": "µM"},
      {"measurement": "AC50", "setting": "[3]", "value": "> 30", "unit": "µM"}
    ]},
    {"smiles": "CC(O)(CS(=O)(=O)c1ccc(F)cc1)C(=O)Nc1ccc(C#N)c(C(F)(F)F)c1", "note": "(stereo not given) [BICALUTAMIDE]", "values": [
      {"measurement": "AC50", "setting": "[9]", "value": "> 30", "unit": "µM"},
      {"measurement": "AC50", "setting": "[6]", "value": "> 10", "unit": "µM"},
      {"measurement": "AC50", "setting": "[10]", "value": "> 30", "unit": "µM"},
      {"measurement": "AC50", "setting": "[11]", "value": "> 30", "unit": "µM"},
      {"measurement": "AC50", "setting": "[8]", "value": "> 10", "unit": "µM"}
    ]},
    {"smiles": "O=C(O)COCCN1CCN(C(c2ccccc2)c2ccc(Cl)cc2)CC1", "note": "(stereo not given) [CETIRIZINE]", "values": [
      {"measurement": "AC50", "setting": "[9]", "value": "> 30", "unit": "µM"},
      {"measurement": "AC50", "setting": "[10]", "value": "> 30", "unit": "µM"},
      {"measurement": "AC50", "setting": "[11]", "value": "> 30", "unit": "µM"}
    ]},
    {"smiles": "C[C@@H]1C[C@H]2[C@@H]3C[C@H](F)C4=CC(=O)C=C[C@]4(C)[C@@]3(F)[C@@H](O)C[C@]2(C)[C@@]1(OC(=O)c1ccco1)C(=O)SCF", "note": "[FLUTICASONE FUROATE]", "values": [
      {"measurement": "AC50", "setting": "[6]", "value": "> 10", "unit": "µM"},
      {"measurement": "AC50", "setting": "[8]", "value": "> 10", "unit": "µM"}
    ]},
    {"smiles": "CNCCc1ccc(OC(=O)C(C)C)c(OC(=O)C(C)C)c1", "note": "[IBOPAMINE]", "values": [
      {"measurement": "AC50", "setting": "[5]", "value": "> 30", "unit": "µM"}
    ]},
    {"smiles": "CN(C)CCCN1c2ccccc2CCc2ccccc21", "note": "[IMIPRAMINE]", "values": [
      {"measurement": "AC50", "setting": "[1]", "value": "> 100", "unit": "µM"},
      {"measurement": "AC50", "setting": "[9]", "value": "> 30", "unit": "µM"},
      {"measurement": "AC50", "setting": "[10]", "value": "> 30", "unit": "µM"},
      {"measurement": "AC50", "setting": "[11]", "value": "> 30", "unit": "µM"},
      {"measurement": "AC50", "setting": "[8]", "value": "> 10", "unit": "µM"}
    ]},
    {"smiles": "CN(Cc1cnc2nc(N)nc(N)c2n1)c1ccc(C(=O)N[C@@H](CCC(=O)O)C(=O)O)cc1", "note": "[METHOTREXATE]", "values": [
      {"measurement": "AC50", "setting": "[9]", "value": "> 30", "unit": "µM"},
      {"measurement": "AC50", "setting": "[10]", "value": "> 30", "unit": "µM"},
      {"measurement": "AC50", "setting": "[11]", "value": "> 30", "unit": "µM"}
    ]},
    {"smiles": "O=C(O)c1cccnc1Nc1cccc(C(F)(F)F)c1", "note": "[NIFLUMIC ACID]", "values": [
      {"measurement": "AC50", "setting": "[1]", "value": "> 100", "unit": "µM"}
    ]},
    {"smiles": "OC[C@H]1O[C@@H](n2cnc3c2NC=NC[C@H]3O)C[C@@H]1O", "note": "[PENTOSTATIN]", "values": [
      {"measurement": "AC50", "setting": "[2]", "value": "> 30", "unit": "µM"},
      {"measurement": "AC50", "setting": "[3]", "value": "> 30", "unit": "µM"},
      {"measurement": "AC50", "setting": "[4]", "value": "> 30", "unit": "µM"},
      {"measurement": "AC50", "setting": "[5]", "value": "> 30", "unit": "µM"}
    ]},
    {"smiles": "CC(C)c1cccc(C(C)C)c1O", "note": "[PROPOFOL]", "values": [
      {"measurement": "AC50", "setting": "[2]", "value": "> 30", "unit": "µM"},
      {"measurement": "AC50", "setting": "[3]", "value": "> 30", "unit": "µM"}
    ]},
    {"smiles": "CN[C@@H](C)[C@@H](O)c1ccccc1", "note": "[PSEUDOEPHEDRINE]", "values": [
      {"measurement": "AC50", "setting": "[9]", "value": "> 30", "unit": "µM"},
      {"measurement": "AC50", "setting": "[10]", "value": "> 30", "unit": "µM"},
      {"measurement": "AC50", "setting": "[11]", "value": "> 30", "unit": "µM"}
    ]},
    {"smiles": "O=C1OC(OC(=O)c2cccnc2Nc2cccc(C(F)(F)F)c2)c2ccccc21", "note": "(stereo not given) [TALNIFLUMATE]", "values": [
      {"measurement": "AC50", "setting": "[4]", "value": "> 30", "unit": "µM"},
      {"measurement": "AC50", "setting": "[5]", "value": "> 30", "unit": "µM"}
    ]},
    {"smiles": "O=S1(=O)CCN(CN2CCS(=O)(=O)NC2)CN1", "note": "[TAUROLIDINE]", "values": [
      {"measurement": "AC50", "setting": "[4]", "value": "> 30", "unit": "µM"},
      {"measurement": "AC50", "setting": "[5]", "value": "> 30", "unit": "µM"},
      {"measurement": "AC50", "setting": "[7]", "value": "> 30", "unit": "µM"}
    ]},
    {"smiles": "COc1ccc2c(C(=S)N(C)CC(=O)O)cccc2c1C(F)(F)F", "note": "[TOLRESTAT]", "values": [
      {"measurement": "AC50", "setting": "[7]", "value": "> 30", "unit": "µM"}
    ]}
  ]
}
